Results: patent US8168667B2 (Galapagos NV, priority 2006, dated 2012)
Where two headings read alike, the source gives them in different places.

Biological target: T1, human androgen receptor (hAR) (Homo sapiens, UniProt P10275)
T1 sequence (P10275 1-920): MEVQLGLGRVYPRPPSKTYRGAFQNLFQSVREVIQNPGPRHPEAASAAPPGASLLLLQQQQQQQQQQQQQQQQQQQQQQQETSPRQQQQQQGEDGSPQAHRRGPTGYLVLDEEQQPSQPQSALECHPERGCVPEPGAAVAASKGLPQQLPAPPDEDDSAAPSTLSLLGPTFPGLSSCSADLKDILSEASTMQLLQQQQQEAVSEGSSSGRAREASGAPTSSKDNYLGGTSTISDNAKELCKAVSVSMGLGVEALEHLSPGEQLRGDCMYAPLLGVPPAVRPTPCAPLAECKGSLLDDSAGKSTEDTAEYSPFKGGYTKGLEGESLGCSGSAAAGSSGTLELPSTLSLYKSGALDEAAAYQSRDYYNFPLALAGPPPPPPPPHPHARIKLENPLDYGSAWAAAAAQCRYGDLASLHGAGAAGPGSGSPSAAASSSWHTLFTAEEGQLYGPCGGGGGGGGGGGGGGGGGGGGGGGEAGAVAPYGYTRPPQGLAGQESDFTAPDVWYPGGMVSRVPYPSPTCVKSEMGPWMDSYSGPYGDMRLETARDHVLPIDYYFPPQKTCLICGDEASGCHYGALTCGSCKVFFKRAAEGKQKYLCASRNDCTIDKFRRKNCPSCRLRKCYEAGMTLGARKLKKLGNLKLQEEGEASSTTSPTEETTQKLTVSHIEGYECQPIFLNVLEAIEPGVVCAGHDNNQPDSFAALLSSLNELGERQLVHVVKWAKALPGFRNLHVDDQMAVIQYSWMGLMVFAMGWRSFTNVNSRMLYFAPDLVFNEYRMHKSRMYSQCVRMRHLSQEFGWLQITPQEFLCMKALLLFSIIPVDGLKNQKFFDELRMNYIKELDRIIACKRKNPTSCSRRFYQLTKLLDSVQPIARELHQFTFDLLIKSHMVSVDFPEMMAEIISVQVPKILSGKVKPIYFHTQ
Test: Functional response test: hAR transactivation (luciferase reporter) in HALP2 cells
Format: cell-based
Settings: for EC50: agonism, HALP2 cells (HeLa, hAR + ARE-luciferase), 20 hours at 37° C.
Text: This test constitutes a method of identifying pure or partial agonists which mimic the effects of natural hormones, such as DHT (dihydrotestosterone) in the present case or, on the other hand, antagonists which inhibit them.
For this transactivation test, plasmids encoding a reporter gene and the human androgen receptor (hAR) are introduced together by transfection into the HeLa cell line. The reporter plasmid contains luciferase cDNA under the control of the AREs contained in the promoter sequences of the probasin gene (3xpbAREminicoll-luciferase/pGL3-puro). The expression of the reporter gene constitutes an indication of the transcriptional activity of hAR. It also encodes a protein allowing the cells expressing it to resist a treatment with puromycin. The plasmid encoding hAR contains the cDNA of hAR under the control of the Cytomegalovirus (CMV) promoter. It also encodes a protein allowing the cells expressing it to resist a treatment with neomycin. The treatment of cells with increasing amounts of potentially agonistic compounds will increase the expression of the reporter gene. To detect antagonists, on the other hand, increasing doses of test compounds are tested in the presence of […] of DHT. The expression of the reporter gene, which is constant for each dose of DHT, decreases when the concentration of the test compounds increases.
For this test, HeLa cells were obtained from the American Type Culture Collection (Rockville, Md.) and cultivated in DMEM medium containing 4.5 g/l of glucose, supplemented with Glutamax and with nonessential amino-acids and with 10% of foetal calf serum (SVF; Dominique Dutscher).
On the day before transfection, a million cells were seeded in DMEM medium without phenol red, supplemented with Glutamax and with desteroided SVF (5%) in Petri dishes. The cells were transfected with 4 μg of the puromycin resistance plasmids pcDNA3-hAR and 3xpbAREminicoll-luciferase/pGL3 using the reagent “Lipofectamine plus” (Invitrogen), following the supplier's recommendations. The day after transfection, the cells were seeded to different cell densities (10,000 to 100,000 cellules per Petri dish). Two days after transfection, the transfected cells were selected in DMEM medium without phenol red, supplemented with Glutamax and with desteroided SVF (5%) containing 400 μg/mL of G418 (Invitrogen) and 150 ng/mL of puromycin (Sigma). The culture medium was renewed weekly until resistant clones appeared. The resistant clones were removed and amplified before being tested for their functional response. […]
The functional response test was conducted on 96-well plates. The HALP2 cells were seeded (30,000 cells per well) 24 hours before the phase of stimulation in DMEM medium containing 4.5 g/L of glucose, supplemented with Glutamax and nonessential amino-acids, and with desteroided SVF (5%).
On the day of stimulation, the seeding medium was replaced by DMEM medium without phenol red, supplemented with Glutamax and with desteroided SVF (5%). […] The cells were placed in contact with the compounds for 20 hours at 37° C.

[1] = antagonism, concentration which increases the EC50 of the DHT by a factor of 2, Schild regression, HALP2 cells

Row | SMILES | EC50 | KSchild (nM) potency [1] | KSchild (nM) potency
1 | O=C1C(c2ccc(O)cc2)N(Cc2ccsc2)C(=O)N1c1ccc(Cl)c(Cl)c1 (centres unmarked) [Example 10, 1-(3,4-dichlorophenyl)-4-(4-hydroxyphenyl)-3-[(thiophen-3-yl)methyl]imidazolidine-2,5-dione] | 16.4 nM | 13.69 nM | 
2 | CCCN1C(=O)N(c2ccc(F)c(Cl)c2)C(=O)C1c1ccc(O)cc1 (centres unmarked) [Example 11, 1-(3-chloro-4-fluorophenyl)-4-(4-hydroxyphenyl)-3-propylimidazolidine-2,5-dione] | 80 nM | 80 nM | 
3 | C=CCN1C(=O)N(c2ccc(C#N)c(C(F)(F)F)c2)C(=O)C1c1ccc(O)cc1 (centres unmarked) [Example 12, 4-[2,5-dioxo-4-(4-hydroxyphenyl)-3-(2-propenyl)imidazolidin-1-yl]-2-trifluoromethyl-benzonitrile] |  |  | 24.49 nM
4 | C=CCN1C(=O)N(c2ccc([N+](=O)[O-])c(C(F)(F)F)c2)C(=O)C1c1ccc(O)cc1 (centres unmarked) [Example 13, 1-(4-nitro-3-trifluoromethylphenyl)-4-(4-hydroxyphenyl)-3-(2-propenyl)imidazolidine-2,5-dione] |  |  | 122.47 nM
5 | C=CCN1C(=O)N(c2ccc(F)c(F)c2)C(=O)C1c1ccc(O)cc1 (centres unmarked) [Example 14, 1-(3,4-difluorophenyl)-4-(4-hydroxyphenyl)-3-(2-propenyl)imidazolidine-2,5-dione] | 30 nM | 30 nM | 
6 | CCOC(=O)CCN1C(=O)N(c2ccc(Cl)c(Cl)c2)C(=O)C1c1ccc(O)cc1 (centres unmarked) [Example 15, Ethyl 3-[1-(3,4-dichlorophenyl)-4-(4-hydroxyphenyl)-2,5-dioxoimidazolidin-3-yl]propionate] | 11.3 nM | 11.29 nM | 
7 | O=C1C(c2ccc(O)cc2)N(Cc2ccsc2)C(=S)N1c1cccc(Cl)c1Cl (centres unmarked) [Example 17, 1-(2,3-dichlorophenyl)-4-(4-hydroxyphenyl)-3-[(thiophen-3-yl)methyl]-2-thioxo-imidazolidin-5-one] | 2000 nM | 2000 nM | 
8 | O=C1C(c2ccc(O)cc2)N(Cc2ccsc2)C(=S)N1c1ccc(Cl)cc1Cl (centres unmarked) [Example 18, 1-(2,4-dichlorophenyl)-4-(4-hydroxyphenyl)-3-[(thiophen-3-yl)methyl]-2-thioxo-imidazolidin-5-one] | 5660 nM | 5656.85 nM | 
9 | O=C1C(c2ccc(O)cc2)N(Cc2ccsc2)C(=S)N1c1ccc(Cl)c(Cl)c1 (centres unmarked) [Example 19, 1-(3,4-dichlorophenyl)-4-(4-hydroxyphenyl)-3-[(thiophen-3-yl)methyl]-2-thioxo-imidazolidin-5-one] | 195 nM | 154.92 nM | 
10 | C=CCN1C(=O)N(c2ccc(Cl)c(Cl)c2)C(=O)C1(C)c1ccc(O)cc1 (centres unmarked) [Example 20, 1-(3,4-dichlorophenyl)-4-(4-hydroxyphenyl)-4-methyl-3-(2-propenyl)imidazolidine-2,5-dione] | 4 nM | 3 nM | 
11 | C#CCN1C(=O)N(c2ccc(Cl)c(Cl)c2)C(=O)C1(C)c1ccc(O)cc1 (centres unmarked) [Example 21, 1-(3,4-dichlorophenyl)-4-(4-hydroxyphenyl)-4-methyl-3-(2-propynyl)imidazolidine-2,5-dione] |  |  | 3 nM
12 | CC1(c2ccc(O)cc2)C(=O)N(c2ccc(Cl)c(Cl)c2)C(=O)N1CCCCO (centres unmarked) [Example 22, 1-(3,4-dichlorophenyl)-3-(4-hydroxybutyl)-4-(4-hydroxyphenyl)-4-methylimidazolidine-2,5-dione] | 15 nM | 15 nM | 
13 | C=CCN1C(=O)N(c2ccc(C#N)c(C(F)(F)F)c2)C(=O)C1(C)c1ccc(O)cc1 (centres unmarked) [Example 23, 4-[2,5-dioxo-4-(4-hydroxyphenyl)-4-methyl-3-(2-propenyl)imidazolidin-1-yl]-2-trifluoromethylbenzonitrile] |  | 2 nM | 
14 | CC1(c2ccc(O)cc2)C(=O)N(c2ccc(C#N)c(C(F)(F)F)c2)C(=O)N1CCCCO (centres unmarked) [Example 24, 4-[2,5-dioxo-3-(4-hydroxybutyl)-4-(4-hydroxyphenyl)-4-methylimidazolidin-1-yl]-2-trifluoromethylbenzonitrile] |  |  | 15 nM
15 | CC1(c2ccc(O)cc2)C(=O)N(c2ccc(C#N)c(C(F)(F)F)c2)C(=O)N1C1CC1 (centres unmarked) [Example 24.1, 4-[3-cyclopropyl-2,5-dioxo-4-(4-hydroxyphenyl)-4-methylimidazolidin-1-yl]-2-trifluoromethylbenzonitrile] |  |  | 10 nM
16 | CC1(c2ccc(O)cc2)C(=O)N(c2ccc(C#N)c(C(F)(F)F)c2)C(=O)N1C1CCCC1 (centres unmarked) [Example 24.2, 4-[3-cyclopentyl-2,5-dioxo-4-(4-hydroxyphenyl)-4-methylimidazolidin-1-yl]-2-trifluoromethylbenzonitrile] |  | 20 nM | 
17 | Cc1cc([N+](=O)[O-])ccc1N1C(=O)N(C)C(C)(c2ccc(O)cc2)C1=O (centres unmarked) [Example 26, 3,4-dimethyl-4-(4-hydroxyphenyl)-1-(2-methyl-4-nitro-phenyl)imidazolidine-2,5-dione] |  | 20 nM | 
18 | Cc1cc(Br)ccc1N1C(=O)N(C)C(C)(c2ccc(O)cc2)C1=O (centres unmarked) [Example 27, 1-(4-bromo-2-methylphenyl)-3,4-dimethyl-4-(4-hydroxyphenyl)imidazolidine-2,5-dione] | 13.4 nM | 10.63 nM | 
19 | Cc1cc(Cl)ccc1N1C(=O)N(C)C(C)(c2ccc(O)cc2)C1=O (centres unmarked) [Example 28, 1-(4-chloro-2-methylphenyl)-3,4-dimethyl-4-(4-hydroxyphenyl)imidazolidine-2,5-dione] | 24.5 nM | 24.49 nM | 
20 | CN1C(=O)N(c2ccc(C(F)(F)F)cc2Cl)C(=O)C1(C)c1ccc(O)cc1 (centres unmarked) [Example 29, 1-(2-chloro-4-trifluoromethylphenyl)-3,4-dimethyl-4-(4-hydroxyphenyl)imidazolidine-2,5-dione] | 60 nM | 60 nM | 
21 | CN1C(=O)N(c2ccc(Cl)c(Cl)c2Cl)C(=O)C1(C)c1ccc(O)cc1 (centres unmarked) [Example 30, 3,4-dimethyl-4-(4-hydroxyphenyl)-1-(2,3,4-trichlorophenyl)imidazolidine-2,5-dione] | 15 nM | 15 nM | 
22 | CN1C(=O)N(c2ccc(C#N)c3ccccc23)C(=O)C1(C)c1ccc(O)cc1 (centres unmarked) [Example 31, 4-[3,4-dimethyl-2,5-dioxo-4-(4-hydroxyphenyl)imidazolidin-1-yl]naphthonitrile] |  |  | 800 nM
